Consider 38 molecules from ChEMBL document CHEMBL4616657, “Aromatic Esters of the Crinane Amaryllidaceae Alkaloid Ambelline as Selective Inhibitors of Butyrylcholinesterase” (J Nat Prod, 2020).

The target in data set [1] is T1, Cholinesterase (Homo sapiens, UniProt P06276). Nature of the data set: Inhibition of human BuChE using butyrylthiocholine iodide as substrate at 100 uM measured for 1 min by spectrophotometric based Ellman's method relative to control. A general note: In Ellman's method for cholinesterases, released thiocholine reacts with DTNB.
T1 sequence (P06276 whole entry): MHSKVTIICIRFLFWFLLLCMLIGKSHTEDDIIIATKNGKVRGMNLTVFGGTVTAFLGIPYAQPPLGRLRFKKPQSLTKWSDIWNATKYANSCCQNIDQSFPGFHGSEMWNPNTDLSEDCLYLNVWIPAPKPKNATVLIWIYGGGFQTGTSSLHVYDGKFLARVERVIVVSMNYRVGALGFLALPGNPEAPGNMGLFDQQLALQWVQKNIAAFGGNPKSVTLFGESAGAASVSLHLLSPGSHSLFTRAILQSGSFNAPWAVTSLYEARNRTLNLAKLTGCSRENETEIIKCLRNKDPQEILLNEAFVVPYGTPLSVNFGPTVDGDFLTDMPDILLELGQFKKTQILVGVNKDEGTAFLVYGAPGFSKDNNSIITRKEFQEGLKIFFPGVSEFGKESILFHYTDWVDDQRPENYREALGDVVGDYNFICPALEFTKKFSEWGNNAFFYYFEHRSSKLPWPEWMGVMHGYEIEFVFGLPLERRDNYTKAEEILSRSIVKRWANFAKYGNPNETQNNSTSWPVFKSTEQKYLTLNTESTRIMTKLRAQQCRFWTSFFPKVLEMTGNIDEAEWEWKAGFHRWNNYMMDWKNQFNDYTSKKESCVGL
Data set [2] deals with T2, Acetylcholinesterase (Homo sapiens, UniProt P22303). As to the kind of experiment: Inhibition of human AChE using acetylthiocholine iodide as substrate at 100 uM measured for 1 min by spectrophotometric based Ellman's method relative to control.
T2 sequence (P22303 whole entry): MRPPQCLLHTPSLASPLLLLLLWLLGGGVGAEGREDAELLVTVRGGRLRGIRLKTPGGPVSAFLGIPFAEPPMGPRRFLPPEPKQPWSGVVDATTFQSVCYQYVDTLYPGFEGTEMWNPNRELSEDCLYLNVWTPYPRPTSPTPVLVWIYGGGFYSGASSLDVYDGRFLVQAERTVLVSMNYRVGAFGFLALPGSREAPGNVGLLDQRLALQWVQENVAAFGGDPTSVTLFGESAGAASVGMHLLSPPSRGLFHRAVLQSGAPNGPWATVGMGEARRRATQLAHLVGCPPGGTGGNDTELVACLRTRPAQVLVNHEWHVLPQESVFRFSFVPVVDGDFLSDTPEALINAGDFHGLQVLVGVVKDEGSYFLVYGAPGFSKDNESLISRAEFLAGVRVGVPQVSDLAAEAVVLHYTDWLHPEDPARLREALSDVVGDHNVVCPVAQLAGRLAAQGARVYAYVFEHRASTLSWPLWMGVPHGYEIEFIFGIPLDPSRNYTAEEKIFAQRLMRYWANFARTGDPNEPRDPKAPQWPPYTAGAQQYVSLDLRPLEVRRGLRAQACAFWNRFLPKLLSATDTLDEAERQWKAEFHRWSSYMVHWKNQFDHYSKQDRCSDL
Data set [3] deals with T2, Acetylcholinesterase. Nature of the data set: Inhibition of human AChE using acetylthiocholine iodide as substrate measured for 1 min by spectrophotometric based Ellman's method.
The target in data set [4] is T1, Cholinesterase. Nature of the data set: Inhibition of human BuChE using butyrylthiocholine iodide as substrate measured for 1 min by spectrophotometric based Ellman's method.
The species entered for a further data set is Homo sapiens. As to the kind of experiment: Selectivity index, ratio of IC50 for inhibition of human AChE using acetylthiocholine iodide as substrate to inhibition of human BuChE using butyrylthiocholine iodide as substrate.
In data set [5] the target is Cholinesterase (Equus caballus, UniProt P81908). As to the kind of experiment: Inhibition of horse serum BuChE using butyrylthiocholine chloride as substrate by spectrophotometric based Ellman's method.
Cholinesterase (Equus caballus, UniProt P81908), sequence (P81908 whole entry): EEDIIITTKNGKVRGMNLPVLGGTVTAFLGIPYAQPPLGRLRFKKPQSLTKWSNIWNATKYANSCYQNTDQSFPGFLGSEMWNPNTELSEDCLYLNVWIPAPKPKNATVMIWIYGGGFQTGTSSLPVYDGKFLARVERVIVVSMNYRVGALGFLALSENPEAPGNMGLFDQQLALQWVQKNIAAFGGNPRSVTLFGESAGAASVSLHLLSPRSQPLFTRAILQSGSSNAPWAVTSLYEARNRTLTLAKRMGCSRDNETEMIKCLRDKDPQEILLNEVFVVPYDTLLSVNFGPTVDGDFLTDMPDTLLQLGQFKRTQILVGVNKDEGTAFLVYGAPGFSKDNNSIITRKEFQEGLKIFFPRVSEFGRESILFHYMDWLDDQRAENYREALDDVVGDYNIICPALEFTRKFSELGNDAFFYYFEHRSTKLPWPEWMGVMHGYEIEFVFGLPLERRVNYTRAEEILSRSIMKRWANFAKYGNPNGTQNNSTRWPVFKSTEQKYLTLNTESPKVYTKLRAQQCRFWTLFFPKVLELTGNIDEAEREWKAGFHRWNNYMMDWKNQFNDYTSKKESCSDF
Data set [6] can be described thus: Effective permeability of the compound at pH 7.4 at 100 uM measured after 3 to 6 hrs by PAMPA assay. Type of data set: ADME. The note with it: read-out: Peff. In general terms: PAMPA measures passive passage across an artificial lipid membrane.

A value given as a limit tells only on which side of the number the result lay.

Consider `COc1c2c(cc3c1OCO3)[C@]13C=C[C@H](OC)C[C@@H]1[N@](C2)C[C@H]3OC(=O)c1ccco1`, for which the inhibition amounted to 49% against Cholinesterase [1] and 12% against Acetylcholinesterase [2].
`COc1c2c(cc3c1OCO3)[C@]13C=C[C@H](OC)C[C@@H]1N(C2)C[C@H]3OC(C)=O`: the IC50 against Acetylcholinesterase [3] and on Cholinesterase [4] was more than 100 µM each time.
On to `COc1c2c(cc3c1OCO3)[C@]13C=C[C@H](OC)C[C@@H]1[N@](C2)C[C@H]3OC(=O)c1cccc([N+](=O)[O-])c1`, for which the inhibition at Cholinesterase [1] turned out to be 53%; at Acetylcholinesterase [2] it was 58%. For the same molecule, in the data set filed under Homo sapiens, the Ratio IC50 worked out at 0.6.
As to `COc1c2c(cc3c1OCO3)[C@]13C=C[C@H](OC)C[C@@H]1[N@](C2)C[C@H]3OC(=O)c1ccccc1`, the figures for the inhibition against Cholinesterase [1] and against Acetylcholinesterase [2] were 97% and 25%, respectively. The Ratio IC50 in the data set filed under Homo sapiens is more than 26.
In the case of `C[C@@H]([C@H]1CC[C@@]2(C)[C@@H]3CC[C@@H]4C(=CC3=CC[C@]12C)C=C[C@H](NC(=O)c1ccccc1)C4(C)C)N(C)C`, inhibition on Cholinesterase [5] was half-maximal at 1.7 µM (IC50).
For `COc1ccccc1C(=O)O[C@@H]1CN2Cc3c(cc4c(c3OC)OCO4)[C@@]13C=C[C@H](OC)C[C@H]23`, the IC50 was more than 100 µM at Acetylcholinesterase [3] and 0.43 µM on Cholinesterase [4]. For the same molecule, the Papp at 100 µM in data set [6] came out at 12 ×10⁻⁶ cm/s.
Turning to `COc1c2c(cc3c1OCO3)[C@]13C=C[C@H](OC)C[C@@H]1N(C2)C[C@H]3OC(=O)c1ccc2ccccc2c1`, the IC50 against Acetylcholinesterase [3] was more than 100 µM; against Cholinesterase [4] it was 14 µM.
With `COc1c2c(cc3c1OCO3)[C@]13C=C[C@H](OC)C[C@@H]1[N@](C2)C[C@H]3OC(=O)c1cccc(C)c1`, the values for the inhibition at Cholinesterase [1] and at Acetylcholinesterase [2] were 98% and 41%, respectively. Further, in the data set listed under Homo sapiens, the Ratio IC50 is more than 116.
`CCC(=O)O[C@@H]1C[N@@]2Cc3c(cc4c(c3OC)OCO4)[C@@]13C=C[C@H](OC)C[C@H]23`: the IC50 against Acetylcholinesterase [3] and at Cholinesterase [4] was more than 100 µM throughout. In addition, the results for the inhibition against Cholinesterase [1] and at Acetylcholinesterase [2] were 16% and 15%, respectively.
`COc1c2c(cc3c1OCO3)[C@]13C=C[C@H](OC)C[C@@H]1[N@](C2)C[C@H]3OC(=O)c1ccoc1`: the inhibition against Cholinesterase [1] is 61%; against Acetylcholinesterase [2], 12%. Also, the Ratio IC50 in the data set filed under Homo sapiens is 1.9.
Turning to `COc1ccc(C(=O)O[C@@H]2C[N@@]3Cc4c(cc5c(c4OC)OCO5)[C@@]24C=C[C@H](OC)C[C@H]34)cc1`, the IC50 at Acetylcholinesterase [3] and on Cholinesterase [4] was more than 100 µM throughout. Also, the inhibition stood at 32% against Cholinesterase [1] and 26% on Acetylcholinesterase [2].
With `COc1c2c(cc3c1OCO3)[C@]13C=C[C@H](OC)C[C@@H]1N(C2)C[C@H]3OC(=O)c1cccc([N+](=O)[O-])c1`, the figures for the IC50 against Acetylcholinesterase [3] and against Cholinesterase [4] were 48 µM and 81 µM, respectively.
Consider `COc1c2c(cc3c1OCO3)[C@]13C=C[C@H](OC)C[C@@H]1[N@](C2)C[C@H]3OC(=O)C(C)C`, for which the inhibition against Cholinesterase [1] stood at 12%; on Acetylcholinesterase [2], 3%.
Consider `COc1c2c(cc3c1OCO3)[C@]13C=C[C@H](OC)C[C@@H]1N(C2)C[C@H]3OC(=O)c1cccc2ccccc12`, for which the IC50 at Acetylcholinesterase [3] was more than 100 µM; on Cholinesterase [4] it was 0.1 µM. Moreover, the Papp at 100 µM in data set [6] was 9 ×10⁻⁶ cm/s.
As for `C[C@@H]([C@H]1[C@H](O)C[C@@]2(C)[C@@H]3CC[C@H]4C(C)(C)C(=O)C=C[C@@]45C[C@@]35CC[C@]12C)N(C)C`, half-maximal inhibition on Cholinesterase [5] (IC50) required 1.1 µM.
Consider `COc1cccc(C(=O)O[C@@H]2CN3Cc4c(cc5c(c4OC)OCO5)[C@@]24C=C[C@H](OC)C[C@H]34)c1`, for which the IC50 was more than 100 µM at Acetylcholinesterase [3] and 6 µM on Cholinesterase [4].
Take `COc1cccc(C(=O)O[C@@H]2C[N@@]3Cc4c(cc5c(c4OC)OCO5)[C@@]24C=C[C@H](OC)C[C@H]34)c1`: the values for the inhibition at Cholinesterase [1] and on Acetylcholinesterase [2] were 91% and 25%, respectively. The Ratio IC50 in the data set filed under Homo sapiens is more than 16.
Take `COc1c2c(cc3c1OCO3)[C@]13C=C[C@H](OC)C[C@@H]1N(C2)C[C@H]3OC(=O)c1ccccc1`: the IC50 is more than 100 µM on Acetylcholinesterase [3] and 3.8 µM against Cholinesterase [4]. The Papp at 100 µM in data set [6] was found to be 12 ×10⁻⁶ cm/s.
As to `COc1ccccc1C(=O)O[C@@H]1C[N@@]2Cc3c(cc4c(c3OC)OCO4)[C@@]13C=C[C@H](OC)C[C@H]23`, the inhibition worked out at 99% against Cholinesterase [1] and 31% against Acetylcholinesterase [2]. In the data set filed under Homo sapiens, the Ratio IC50 was more than 235.
As for `COc1c2c(cc3c1OCO3)[C@]13C=C[C@H](OC)C[C@@H]1[N@](C2)C[C@H]3OC(C)=O`, the values for the inhibition at Cholinesterase [1] and against Acetylcholinesterase [2] were 28% and 4%, respectively.
Consider `COc1c2c(cc3c1OCO3)[C@]13C=C[C@H](OC)C[C@@H]1[N@](C2)C[C@H]3O`, for which the IC50 against Acetylcholinesterase [3] and against Cholinesterase [4] was more than 100 µM in each case. Also, the inhibition was found to be 8% against Cholinesterase [1] and 4% on Acetylcholinesterase [2].
On to `COc1c2c(cc3c1OCO3)[C@]13C=C[C@H](OC)C[C@@H]1N(C2)C[C@H]3OC(=O)c1ccccc1[N+](=O)[O-]`, for which the IC50 is 54 µM against Acetylcholinesterase [3] and 2.3 µM against Cholinesterase [4]. Further, in data set [6], the Papp at 100 µM stood at 12 ×10⁻⁶ cm/s.
In the case of `COc1c2c(cc3c1OCO3)[C@]13C=C[C@H](OC)C[C@@H]1N(C2)C[C@H]3OC(=O)c1cccc(C)c1`, the IC50 against Acetylcholinesterase [3] is more than 100 µM; against Cholinesterase [4], 0.86 µM. The Papp at 100 µM in data set [6] is 8 ×10⁻⁶ cm/s.
Turning to `COc1c2c(cc3c1OCO3)[C@]13C=C[C@H](OC)C[C@@H]1N(C2)C[C@H]3OC(=O)c1ccco1`, the concentration for half-maximal inhibition (IC50) against Acetylcholinesterase [3] and against Cholinesterase [4] was more than 100 µM each time.
Consider `CO[C@@H]1C=C[C@@]23c4cc5c(cc4CN(C[C@@H]2O)[C@H]3C1)OCO5` [(+)-HAEMANTHAMINE], for which the IC50 on Acetylcholinesterase [3] and at Cholinesterase [4] was more than 100 µM each time. Further, the figures for the inhibition against Cholinesterase [1] and on Acetylcholinesterase [2] were 13% and 6%, respectively.
On to `CCCCC(=O)O[C@@H]1C[N@@]2Cc3c(cc4c(c3OC)OCO4)[C@@]13C=C[C@H](OC)C[C@H]23`, for which the IC50 against Acetylcholinesterase [3] and against Cholinesterase [4] was more than 100 µM throughout. The inhibition against Cholinesterase [1] was 39%; against Acetylcholinesterase [2], 7%.
In the case of `CCOc1cc(OCC)cc(C(=O)O[C@@H]2C[N@@]3Cc4c(cc5c(c4OC)OCO5)[C@@]24C=C[C@H](OC)C[C@H]34)c1`, the IC50 at Acetylcholinesterase [3] and on Cholinesterase [4] was more than 100 µM in each case. The inhibition amounted to 42% on Cholinesterase [1] and 30% against Acetylcholinesterase [2].
`COc1c2c(cc3c1OCO3)[C@]13C=C[C@H](OC)C[C@@H]1N(C2)C[C@H]3OC(=O)c1ccc(C)cc1`: the 50% inhibitory concentration (IC50) on Acetylcholinesterase [3] is more than 100 µM; at Cholinesterase [4], 28 µM.
For the molecule `COc1c2c(cc3c1OCO3)[C@]13C=C[C@H](OC)C[C@@H]1[N@](C2)C[C@H]3OC(=O)c1cccc2ccccc12`, the inhibition was 96% against Cholinesterase [1] and 21% on Acetylcholinesterase [2]. Further, the Ratio IC50 in the data set filed under Homo sapiens was more than 1000.
As to `COc1c2c(cc3c1OCO3)[C@]13C=C[C@H](OC)C[C@@H]1[N@](C2)C[C@H]3OC(=O)c1ccc([N+](=O)[O-])cc1`, the IC50 at Acetylcholinesterase [3] and against Cholinesterase [4] was more than 100 µM each time. Moreover, the inhibition against Cholinesterase [1] turned out to be 37%; at Acetylcholinesterase [2] it was 31%.
For the molecule `COc1c2c(cc3c1OCO3)[C@]13C=C[C@H](OC)C[C@@H]1[N@](C2)C[C@H]3OC(=O)c1ccc(C)cc1`, the inhibition against Cholinesterase [1] came out at 68%; on Acetylcholinesterase [2], 28%. In addition, in the data set listed under Homo sapiens, the Ratio IC50 was more than 4.
Regarding `COc1ccc(C(=O)O[C@@H]2CN3Cc4c(cc5c(c4OC)OCO5)[C@@]24C=C[C@H](OC)C[C@H]34)cc1OC`, the IC50 at Acetylcholinesterase [3] and against Cholinesterase [4] was more than 100 µM throughout.
In the case of `COc1c2c(cc3c1OCO3)[C@]13C=C[C@H](OC)C[C@@H]1N(C2)C[C@H]3OC(=O)C(C)C`, the IC50 against Acetylcholinesterase [3] and at Cholinesterase [4] was more than 100 µM each time.
Consider `COc1c2c(cc3c1OCO3)[C@]13C=C[C@H](OC)C[C@@H]1N(C2)C[C@H]3OC(=O)c1ccoc1`, for which the IC50 against Acetylcholinesterase [3] is more than 100 µM; at Cholinesterase [4] it was 32 µM.
With `COc1c2c(cc3c1OCO3)[C@]13C=C[C@H](OC)C[C@@H]1[N@](C2)C[C@H]3OC(=O)c1ccc2ccccc2c1`, the inhibition at Cholinesterase [1] was 77%; at Acetylcholinesterase [2], 29%. Besides, in the data set listed under Homo sapiens, the Ratio IC50 was determined as 5.2.
Taken in the same sequence, the figures for `COc1c2c(cc3c1OCO3)[C@]13C=C[C@H](OC)C[C@@H]1[N@](C2)C[C@H]3OC(=O)c1ccccc1[N+](=O)[O-]` were 97%, 75% and 23.
Consider `COc1ccc(C(=O)O[C@@H]2C[N@@]3Cc4c(cc5c(c4OC)OCO5)[C@@]24C=C[C@H](OC)C[C@H]34)cc1OC`, for which the figures for the inhibition on Cholinesterase [1] and against Acetylcholinesterase [2] were 33% and 15%, respectively.
For `COc1c2c(cc3c1OCO3)[C@]13C=C[C@H](OC)C[C@@H]1[N@](C2)C[C@H]3OC(=O)c1ccccc1C`, the IC50 at Acetylcholinesterase [3] turned out to be 55 µM; on Cholinesterase [4], 0.28 µM. The figures for the inhibition against Cholinesterase [1] and at Acetylcholinesterase [2] were 99% and 51%, respectively. Also, the Papp at 100 µM in data set [6] amounted to 19 ×10⁻⁶ cm/s. Also, the Ratio IC50 in the data set listed under Homo sapiens was 195.

Broadly, the inhibition is the drop in the measured response relative to a control, in per cent. A lower inhibition goes with little suppression. In general, IC50 refers to the point on the concentration scale where inhibition reaches its midpoint. The low end stands for greater potency in that assay, the high end for weaker potency in that assay.
